Assay results from patent US9371331B2, “Modulators of methyl modifying enzymes, compositions and uses thereof” (Constellation Pharmaceuticals, Inc., priority 2012, dated 2016).
Like-named read-outs stand apart in the source and are kept apart here.

Key:
[1] = target: EZH2 (rPRC2) (Homo sapiens, UniProt Q15910); test: EZH2 assay: rPRC2, biotinylated oligonucleosomes, 3H SAM methyl transfer (FlashPlate scintillation); assay type: biochemical; details: biotinylated oligonucleosome substrate
[2] = target: Y641N EZH2 (Homo sapiens, UniProt Q15910, Y641N); test: Y641N EZH2 assay: as EZH2 assay, with reconstituted H3K27Me2 oligonucleosomes as substrate; assay type: biochemical
Y641N EZH2, sequence (Q15910 whole entry Y641N): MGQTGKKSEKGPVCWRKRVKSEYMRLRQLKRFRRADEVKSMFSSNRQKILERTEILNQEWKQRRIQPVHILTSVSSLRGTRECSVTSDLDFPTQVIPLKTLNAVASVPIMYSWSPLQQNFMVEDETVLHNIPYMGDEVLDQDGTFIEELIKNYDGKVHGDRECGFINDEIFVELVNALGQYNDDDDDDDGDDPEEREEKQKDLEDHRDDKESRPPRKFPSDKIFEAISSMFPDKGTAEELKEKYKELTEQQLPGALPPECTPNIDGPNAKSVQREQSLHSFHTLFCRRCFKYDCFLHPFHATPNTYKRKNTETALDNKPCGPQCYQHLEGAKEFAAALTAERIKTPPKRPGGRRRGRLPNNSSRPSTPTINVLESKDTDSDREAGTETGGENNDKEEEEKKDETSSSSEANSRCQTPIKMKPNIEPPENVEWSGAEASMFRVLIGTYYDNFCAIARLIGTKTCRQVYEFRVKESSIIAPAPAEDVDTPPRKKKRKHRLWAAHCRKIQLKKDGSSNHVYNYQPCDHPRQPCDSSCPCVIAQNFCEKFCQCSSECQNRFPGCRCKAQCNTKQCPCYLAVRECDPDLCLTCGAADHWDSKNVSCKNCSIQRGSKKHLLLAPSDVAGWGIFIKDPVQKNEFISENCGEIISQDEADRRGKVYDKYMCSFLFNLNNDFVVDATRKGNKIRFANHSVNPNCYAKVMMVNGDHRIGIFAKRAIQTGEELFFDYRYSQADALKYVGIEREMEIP
Y641N EZH2, sequence (O75530 whole entry partner): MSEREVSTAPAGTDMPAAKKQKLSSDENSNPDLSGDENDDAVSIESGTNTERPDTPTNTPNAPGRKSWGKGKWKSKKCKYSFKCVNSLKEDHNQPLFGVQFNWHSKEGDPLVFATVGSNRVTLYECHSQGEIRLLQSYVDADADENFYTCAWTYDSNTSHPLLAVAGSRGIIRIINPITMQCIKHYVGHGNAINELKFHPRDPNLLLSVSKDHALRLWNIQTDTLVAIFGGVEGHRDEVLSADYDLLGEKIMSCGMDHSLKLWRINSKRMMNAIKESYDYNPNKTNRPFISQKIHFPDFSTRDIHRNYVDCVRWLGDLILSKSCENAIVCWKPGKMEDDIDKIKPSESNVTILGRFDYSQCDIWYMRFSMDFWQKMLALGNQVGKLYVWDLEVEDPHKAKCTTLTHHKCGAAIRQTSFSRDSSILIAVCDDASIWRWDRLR
Y641N EZH2, sequence (Q15022 whole entry partner): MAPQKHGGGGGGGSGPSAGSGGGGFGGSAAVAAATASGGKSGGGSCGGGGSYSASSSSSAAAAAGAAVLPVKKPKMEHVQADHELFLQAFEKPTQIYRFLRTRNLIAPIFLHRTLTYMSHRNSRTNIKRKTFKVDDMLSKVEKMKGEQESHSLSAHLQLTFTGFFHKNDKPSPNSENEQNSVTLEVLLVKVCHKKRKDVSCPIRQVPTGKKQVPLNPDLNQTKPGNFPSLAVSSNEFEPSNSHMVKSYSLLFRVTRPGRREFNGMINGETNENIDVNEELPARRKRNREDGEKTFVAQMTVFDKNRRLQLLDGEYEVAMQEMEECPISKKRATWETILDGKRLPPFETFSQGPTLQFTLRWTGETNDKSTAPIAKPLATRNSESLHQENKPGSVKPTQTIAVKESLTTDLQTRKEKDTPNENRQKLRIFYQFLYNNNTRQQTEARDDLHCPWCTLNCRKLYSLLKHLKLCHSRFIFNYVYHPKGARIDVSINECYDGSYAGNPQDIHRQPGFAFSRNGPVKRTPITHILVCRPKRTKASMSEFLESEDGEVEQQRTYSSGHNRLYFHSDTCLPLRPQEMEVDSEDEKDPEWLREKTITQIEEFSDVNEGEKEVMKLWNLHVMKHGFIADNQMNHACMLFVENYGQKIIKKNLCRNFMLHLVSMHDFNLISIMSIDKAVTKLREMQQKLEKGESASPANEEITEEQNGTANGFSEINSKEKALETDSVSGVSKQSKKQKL

[3] = test system: H3K27me3 mark in HeLa cells; test: H3K27me3 Alpha Hela Assay (AlphaLISA); assay type: cell-based; details: 72 hrs; for EC50: Homo sapiens, read-out: H3K27me3_Alpha_HeLa_ (EC50)
Procedure: H3K27me3 Alpha Hela Assay (AlphaLISA).
Ten different doses of each test compound (in a series of 3-fold dilutions) were plated in duplicate 384-well tissue culture treated plates (Catalog #781080; Greiner Bio One; Monroe, N.C.). Hela cells grown in culture were trypsinized and counted using a Countess® cell counter (Catalog #C10281; Life Technologies, Grand Island, N.Y.). Cell were diluted to 67,000 cells per mL in 10% DMEM (Catalog #10569-010 Life Technologies. Grand Island, N.Y.) and 15 μL (1,000 cells) were plated into each well using the Biotek MicroFlo™ Select Dispenser (BioTek Instruments. Inc. Vermont, USA),) of the 384-well plate. Plates were incubated at 37° C./5% CO2 for 72 hrs. One of the duplicate plates was processed for HeLa assay and the other for viability.
To the plate processed for AlphaLISA was added 5 μL per well Cell-Histone Lysis buffer (1×) (Catalog #AL009F1 Perkin Elmer; Waltham, Mass.) and the plate was incubated at RT for 30 minutes on a plate shaker with low speed (Model#4625-Q Thermo Scientific; Waltham, Mass.). Then, 10 µL per well Histone Extraction buffer (catalog #AL009F2: Perkin Elmer; Waltham, Mass.) was added and the plate further incubated at RT for 20 min on plate shaker with low speed. To each well was then added 10 μL per well of a 5× mix of anti-K27me3 acceptor beads plus Biotinylated anti-Histone H3 (C-ter) Antibody (diluted to 3 nM final) (Catalog #AL118 Perkin Elmer; Waltham, Mass.). Dilution of the acceptor beads and then anti-Histone H3 was with 1× Histone Detection buffer (Catalog #AL009F3 Perkin Elmer; Waltham, Mass.) which was produced diluted from the 10× stock provided. The plate was sealed with an aluminum plate sealer and incubated at 23° C. for 60 min. We then added 10 μL 5× solution of Streptavidin Donor beads (Catalog #6760002 Perkin Elmer; Waltham, Mass.) (20 μg/mL final in 1× Histone Detection Buffer), sealed the plate with Aluminum plate sealer and incubated at 23° C. for 30 min. The plates were then read using an EnVision-Alpha Reader (model #2104 Perkin Elmer: Waltham, Mass.).
Data from both assays was analyzed using Assay Assistant (Constellation Pharmaceuticals In-house product) and Activity Base (IDBS Ltd. Surrey, UK) template. Data files were imported to Assay Assistant and assay conditions were specified. A unique Analysis ID was created and the data files exported to Activity Base. An analysis template was created on Activity Base to measure dose-dependent inhibition of H3K27me3 mark and cell viability respectively. Readout of DMSO wells were used to normalize the data. Resulting curves were fitted using Activity base software Model 205 (IDBS Ltd, Surrey, UK). The data was checked for quality, validated and integrated in excel format using SARview (IDBS Ltd, Surrey, UK).

[4] = EZH2 IC50, wild-type EZH2 (rPRC2)
[5] = Y641N EZH2 IC50, Y641N mutant EZH2, H3K27Me2 oligonucleosome substrate
[6] = wild-type EZH2 (rPRC2), read-out: EZH2 IC50
[7] = Y641N mutant EZH2, H3K27Me2 oligonucleosome substrate, read-out: Y641N EZH2 IC50

EZH2 (rPRC2), sequence (Q15910 whole entry): as the sequence (Q15910 whole entry Y641N) above, with N641Y counted along it
EZH2 (rPRC2), sequence (O75530 whole entry partner): as the sequence (O75530 whole entry partner) above
EZH2 (rPRC2), sequence (Q15022 whole entry partner): as the sequence (Q15022 whole entry partner) above

| SMILES | IC50 [1, 4] | IC50 [2, 5] | EC50 [3] | IC50 [1, 6] | IC50 [2, 7] | H3K27me3_Alpha_HeLa_ (EC50) [3] |
| --- | --- | --- | --- | --- | --- | --- |
| CCOC(=O)CN1CCC(C(C)n2c(C)c(C(=O)NCc3c(OC)cc(C)[nH]c3=O)c3ccccc32)CC1 (single isomer, unassigned) [Compound 363, (R or S)-ethyl 2-(4-(1-(3-(((4-methoxy-6-methyl-2-oxo-1,2-dihydropyridin-3-yl)methyl)carbamoyl)-2-methyl-1 H-indol-1-yl)ethyl)piperidin-1-yl)acetate] | < 100 nM | < 100 nM | < 400 nM | – | – | – |
| Cc1cc(C)c(CNC(=O)c2c(C)n(C(C)C3CCN(CC(C)(C)O)CC3)c3ccccc23)c(=O)[nH]1 (single isomer, unassigned) [Compound 369, (R or S)-N-((4,6-dimethyl-2-oxo-1,2-dihydropyridin-3-yl)methyl)-1-(1-(1-(2-hydroxy-2-methylpropyl)piperidin-4-yl)ethyl)-2-methyl-1H-indole-3-carboxamide] | < 100 nM | < 100 nM | < 400 nM | – | – | – |
| COc1cc(C)[nH]c(=O)c1CNC(=O)c1c(C)n(C(C)C2CCN(c3ccccn3)CC2)c2ccccc12 (single isomer, unassigned) [Compound 373] | < 100 nM | < 100 nM | < 400 nM | – | – | – |
| COc1cc(C)[nH]c(=O)c1CNC(=O)c1c(C)n(C(C)C2CCOCC2)c2cc(-c3ccccc3)ccc12 (single isomer, unassigned) [Compound 374, (R or S)—N-((4-methoxy-6-methyl-2-oxo-1,2-dihydropyridin-3-yl)methyl)-2-methyl-6-phenyl-1-(1-(tetrahydro-2H-pyran-4-yl)ethyl)-1H-indole-3-carboxamide] | < 100 nM | < 100 nM | < 400 nM | – | – | – |
| Cc1cc(C)c(CNC(=O)c2c(C)n(C(C)C3CCN(C4CN(C)C4)CC3)c3ccccc23)c(=O)[nH]1 (single isomer, unassigned) [Compound 377, (R or S)-N-((4,6-dimethyl-2-oxo-1,2-dihydropyridin-3-yl)methyl)-2-methyl-1(1-(1-(1-methylazetidin-3-yl)piperidin-4-yl)ethyl)-1 H-indole-3-carboxamide] | < 100 nM | < 100 nM | 400 to 2000 nM | – | – | – |
| COc1cc(C)[nH]c(=O)c1CNC(=O)c1c(C)n(-c2cccc3ncccc23)c2ccccc12 [Compound 330, N-((4-methoxy-6-methyl-2-oxo-1,2-dihydropyridin-3-yl)methyl)-2-methyl-1-(quinolin-5-yl)-1H-indole-3-carboxamide] | – | – | 400 to 2000 nM | < 100 nM | < 100 nM | – |
| COc1cc(C)[nH]c(=O)c1CNC(=O)c1c(C)n(C(C)C2CCN(C(=O)OC(C)(C)C)CC2)c2ncncc12 (stereo not drawn) [Compound 332, tert-butyl 4-(1-(5-(((4-methoxy-6-methyl-2-oxo-1,2-dihydropyridin-3-yl)methyl)carbamoyl)-6-methyl-7H-pyrrolo[2,3-d]pyrimidin-7-yl)ethyl)piperidine-1-carboxylate] | – | – | 400 to 2000 nM | < 100 nM | < 100 nM | – |
| COCC(C)(C)n1c(C)c(C(=O)NCc2c(OC)cc(C)[nH]c2=O)c2ccccc21 [Compound 338, 1-(1-methoxy-2-methylpropan-2-yl)-N-((4-methoxy-6-methyl-2-oxo-1,2-dihydropyridin-3-yl)methyl)-2-methyl-1H-indole-3-carboxamide] | < 100 nM | 100 to 1000 nM | 400 to 2000 nM | – | – | – |
| COc1cc(C)[nH]c(=O)c1CNC(=O)c1c(C)n(-c2cccc3c2CCCN3)c2ccccc12 [Compound 339, N-((4-methoxy-6-methyl-2-oxo-1,2-dihydropyridin-3-yl)methyl)-2-methyl-1-(1,2,3,4-tetrahydroquinolin-5-yl)-1H-indole-3-carboxamide] | – | – | < 400 nM | < 100 nM | < 100 nM | – |
| COc1cc(C)[nH]c(=O)c1CNC(=O)c1c(C)n(C(C)C2CCN(S(C)(=O)=O)CC2)c2ncncc12 (stereo not drawn) [Compound 370] | – | – | – | < 100 nM | < 100 nM | *(3.33 μM) |
